# Literature values, collected in patent US8404715B2, “Methods and compositions using racemic, (R)-, and (S)-fexofenadine in combination with leukotriene inhibitors” (Sunovion Pharmaceuticals Inc., priority 1998, dated 2013).
# Read-outs that look alike come from different tables or passages of the source.
# Tests used:
# [1] = tested on: contractile activity of three leukotrienes; settings: laboratory animals
# [2] = tested on: contractile activity of three leukotrienes; settings: humans
# LTD4 [3] = settings: in vivo
# LTD4 [4] = settings: in vivo; remark: listed apart in the source
# [5] = in some patients
# [6] = in vivo
# LTD4 (leukotriene D4) = settings: guinea pigs
# [7] = tested on: nasal response to allergen challenge
# [8] = tested on: leukotriene (LTH4, LTC4, LTD4, and LTE4) formation; settings: in vitro
# LTB4 formation = settings: ex vivo, several species
# [9] = tested on: leukotriene-dependent smooth muscle contractions; settings: in vitro, guinea pig airways
# [10] = tested on: leukotriene-dependent smooth muscle contractions; settings: in vitro, human airways
# [11] = 373 patients
# [12] = in some patients; remark: listed apart in the source
compound,measurement,setting,value
"COc1cc(C(=O)NS(=O)(=O)c2ccccc2C)ccc1Cc1cn(C)c2ccc(NC(=O)OC3CCCC3)cc12 [zafirlukast, 4-(5-cyclopentyloxy-carbonylamino-1-methyl-indol-8-ylmethyl)-3-methoxy-N-o-tolylsulfonylbenzamide]",contractile activity of three leukotrienes in conducting airway smooth muscle,[1],antagonized
same,contractile activity of three leukotrienes in conducting airway smooth muscle,[2],antagonized
same,intradermal LTD4-induced increases in cutaneous vascular permeability,LTD4 [3],prevented
same,inhaled LTD4-induced influx of eosinophils into animal lungs,LTD4 [4],inhibited
same,adverse effects reported,[5],"headache, infection, nausea, diarrhea, pain, asthenia, abdominal pain, dizziness, myalgia, fever, vomiting, SGPT elevation, and dyspepsia"
CC(C)(C)c1ccc(C(O)CCCN2CCC(C(O)(c3ccccc3)c3ccccc3)CC2)cc1 (stereo not shown) [Terfenadine],absorption,[6],well absorbed
same,metabolism,[6],extensively metabolized
same,increase in airway resistance caused by LTD4,LTD4 (leukotriene D4),suppressed
same,early nasal response to allergen challenge,[7]; in vivo,partially inhibits
same,influx of eosinophils into nasal secretions,[7]; in vivo,without affecting
same,subsequent reactivity to a challenge with methacholine,[7]; in vivo,partially inhibits
same,"levels of tryptase, prostaglandin D2 and leukotriene C4","[7]; relative to the placebo, differences did not achieve statistical significance",tended to decrease
"CC(c1cc2ccccc2s1)N(O)C(N)=O (racemic) [zileuton, (±)-1-(1-Benso[b]thien-2-ylethyl)-1-hydroxyurea]","leukotriene (LTH4, LTC4, LTD4, and LTE4) formation",[8],inhibit
same,LTB4 formation,LTB4 formation,inhibitor
same,leukotriene-dependent smooth muscle contractions,[9],inhibits
same,leukotriene-dependent smooth muscle contractions,[10],inhibits
same,efficacy,[11]; 400 mg,failed to do so
same,efficacy,[11]; 600 mg four times daily,required to provide efficacy
same,adverse effects reported,[12],"headache, pain, asthenia, dyspepsia, nausea, and myalgia"
